Measured values: patent US20130109854A1, “Novel Methods for Preparation of (+)-1-ethyl-4-[2-(4-morpholinyl)ethyl)-3,3-diphenyl-2-pyrrolidinone and Salts Thereof” (priority 2011, published 2013)

Assays:
[1] = cited from earlier work
[2] = Stimulating ventilation or reversing respiratory depression (respiratory stimulant activity); assay type: in vivo; conditions: compared with racemic doxapram
[3] = Acute side effects in animals; assay type: in vivo; conditions: compared with racemic doxapram or a salt thereof

SMILES | tidal volume and respiratory rate ([1]; administered intravenously) | effect on stimulating respiration (breathing) ([1]; animals, Ward & Franko, 1962) | activity in stimulating ventilation or reversing respiratory depression (desired beneficial pharmacological activity of racemic doxapram) [2] | adverse side effects compared to administration of racemic doxapram [3]
CCN1CC(CCN2CCOCC2)C(c2ccccc2)(c2ccccc2)C1=O (racemic) [doxapram] | increase | strong, dose-dependent effect | – | –
CCN1CC(CCN2CCOCC2)C(c2ccccc2)(c2ccccc2)C1=O (single isomer, unassigned; (-)) [(−)-doxapram] | – | – | essentially devoid of activity | –
CCN1C[C@H](CCN2CCOCC2)C(c2ccccc2)(c2ccccc2)C1=O [(+)-doxapram, (+)-4-(2-(1-ethyl-5-oxo-4,4-diphenylpyrrolidin-3-yl)ethyl)morpholine] | – | – | most or all the desired beneficial pharmacological activity associated with the racemic doxapram | significantly reduced adverse side effects
